Experimental data: patent US12478601B2, “Dietary product devoid of at least two non essential amino acids” (CANCER RESEARCH TECHNOLOGY LIMITED, priority 2016, dated 2025)
“Also recorded” adds a separate entry of the source.

Columns and labels:
[1] = system: VillincreER; APCfl/fl organoids; test: Organoid malondialdehyde (MDA) immunostaining (ROS damage); format: cell-based, mouse
Description: (§1) Organoids were seeded in the stated media with or without metformin/daunorubicin (both from Sigma) and allowed to grow for two days. Images for size quantification (performed using ImageJ software) were taken using a light microscope then organoids were fixed in 4% paraformaldehyde. ROS damage was assessed by immunostaining organoids with Anti-malondialdehyde (MDA) (Abcam, ab6463), with Alexa Fluor 594 secondary antibody (Thermo Fisher Scientific). Images were captured on an Olympus FV1000 inverted laser scanning confocal microscope and MDA staining was quantified using ImageJ software.

[2] = system: intestinal tumour organoids derived from a VillincreER; APCfl/fl mouse; test: Intestinal tumour organoid growth (diameter) +/− serine and glycine, +/− drug; format: cell-based; conditions: two days
Description: ADF=Advanced DMEM F/12, with 2 mM glutamine, 1% of penicillin/streptomycin solution, 0.1% of AlbuMAX I BSA, 10 mM HEPES (all Gibco/Life Technologies). Adenomas were removed from the small intestine of mice and cut into smaller pieces and washed 5 times with ice cold PBS. Pieces were incubated in 5 mM EDTA for 10 min at 4° C. on a roller. Crypts were washed 2 times with ice cold PBS to remove EDTA and incubated in 10× trypsin for 30 min at 37° C. The crypt-enriched supernatant was collected and washed approximately 5 times with 5 ml ADF through mechanical pipetting. Crypts were pelleted via centrifugation at 1,200 rpm for 5 min. Crypts were re-suspended in growth factor reduced matrigel (BD Biosciences) and 20 μl was plated per well in a 12-well plate. Matrigel was allowed to solidify for 30 min in a 37° C. incubator before appropriate ADF was added supplemented with 0.05 μg/ml EGF and 0.1 μg/ml noggin (Total volume per well 1 ml). Crypts were split by harvesting in ice cold PBS and spun down at 600 rpm for 3 min. Supernatant was aspirated and the pellet dissociated with 100 μl ice cold PBS using mechanical pipetting. 5 ml of PBS was added to tube and spun own at 600 rpm for 3 min, repeated until supernatant was clear of debris. The final crypt pellet was re-suspended with growth factor reduced matrigel and plated as before. For serine/glycine starvation, amino acid free Advanced DMEM F/12 (Gibco/Life Technologies) was used to construct assay medium for organoids with or without serine and glycine, containing all other amino acids. […]
as §1, with “Images were captured on an Olympus FV1000 inverted laser scanning confocal microscope and MDA staining was quantified using ImageJ software.” left out

DLD1 and SW480 cells = test: Metformin in vitro assay in APC-truncated colorectal cell lines, cell number; format: cell-based, Human; conditions: three days
Description: DLD1 and SW480 cells were seeded into 24-well plates and allowed to adhere overnight. Cells were washed with PBS and received either assay medium with or without serine and glycine, with or without metformin at the stated doses and allowed to grow for three days. Representative wells were photographed using a light microscope and counted using a Casy TT cell counter (FIG. 19, panel d). For the dose-response experiment (FIG. 23, panel e) cells were seeded in the same way, either in assay medium without serine and glycine, or in assay medium with low serine and glycine (10 uM), triplicate wells were counted after three days.

[3] = system: intestinal tumours (APCMin/+)
Description: On normal chow, dietary amino acids are derived from whole proteins contained in the raw ingredients (wheat, wheatfeed, barley, de-hulled extracted toasted soya, maize and fish meal), with a small amount of purified lysine added as a supplement. […] “Diet 2-Control” contained all essential amino acids plus serine, glycine, glutamine, arginine, cystine, tyrosine, alanine, proline, glutamate and asparagine; “Diet 2-No Ser, No Gly/Diet 2-SG-free” was the same as Diet 2-Control, but without serine and glycine, with the other amino acid levels increased proportionally to achieve the same total amino acid content. “Diet 2” formulations were used for the Eμ-Myc-Tigar^−/− cohort (FIG. 19, panel f). All other cohorts received the previously published “Diet 1” formulations.
Mus Musculus cohorts were housed in a barriered facility proactive in environmental enrichment. The Eμ-Myc11, ApcMin/+, Lgr5creER; Apcf1/f1 and Pdx1cre; KrasG12D; Trp53f1/+ or Trp53R172H/+ mice/models have been previously described. Mixed male and female populations were used for each genotype. […] Eμ-Myc, and ApcMin/+ mice were at least 20 generations C57BL/6J. Eμ-Myc; Tigarf1/f1 mice were at least 50% C57BL/6J. Mice were put on the appropriate diet at the following times: Eμ-Myc pure bred 60 days post-natal, Eμ-Myc; Tigarf1/f1 55 days post-natal, ApcMin/+80 days post-natal, Lgr5creER; Apcf1/f1 7 days post-induction, Pdx1cre; KrasG12D; Trp53f1/+ or Trp53R172H/+60 days post-natal. […] For the metformin experiment, ApcMin/+ mice were given 200 mg/kg/day in their drinking water, starting 4 days after the diet change. All mice were taken to clinical end-point. Intestines from ApcMin/+ mice were fixed in methacarn (4:2:1 ratio of methanol, chloroform, acetic acid) to facilitate scoring of tumour number and area (width×length).
Samples were prepared in cold (−20° C.) lysis solvent (LS) consisting of methanol, acetonitrile, and H2O (50:30:20). […] Tissue samples were snap frozen and stored at −80° C. Prior to lysis, frozen samples were weighed then homogenized in 1 ml cold LS using a Precellys homogeniser (Bertin Technologies). Lysates were cleared of protein by centrifugation and lysate concentrations were normalized post-homogenisation with LS based on weight. Extracts were analysed on an LCMS platform consisting of an Accela 600 LC system and an Exactive mass spectrometer (Thermo Scientific). A SeQuant ZIC-pHILIC column (2.1 mm×150 mm, 5 μm) (Merck) was used to separate the metabolites with the mobile phase mixed by A=Ammonium carbonate 20 mM (adjusted to pH 9.4) and B=Acetonitrile. A gradient program starting at 20% of A and after 2 mins linearly increasing to 80% at 17 min was used followed by washing and re-equilibration steps. The total run time of the method was 25 min. The LC stream was desolvated and ionised in the HESI probe. The Exactive mass spectrometer was operated in full scan mode over a mass range of 75-1,000 m/z at a resolution of 50,000 with polarity switching. The raw data was analysed by LCquan (Thermo Scientific) and MZMine 2.10 for metabolite identification and quantification.
Mus Musculus cohorts were housed in a barrier facility proactive in environmental enrichment. […] Mixed male and female populations were used for each genotype.

HCT116, DLD1 and SW480 = test: Synergy score screen: chemotherapeutic agents in low serine, glycine, cysteine medium, cell counts; conditions: average synergy score for three colorectal cells lines; drug at 0.01, 0.1 and 1 uM for 48 hours; low serine, glycine, cysteine (17-23 uM) vs complete medium (100 uM)
Description: Human cell lines HCT116, DLD1 and SW480 were seeded into 96-well plates either in complete medium containing serine, glycine and cysteine at 100 uM, with all other amino acids present, or low serine, glycine, cysteine (17-23 uM) medium with all other amino acids present. After 6 hours the stated chemotherapeutic agents were added (at doses of 0.01, 0.1 and 1 uM) to the wells and cells were incubated for a further 48 hours. After this time cells were formalin fixed and stained with a fluorescent nuclear stain for cell counting on an automated (Operetta) plate reader.

MDA-MB-231 cells = test: Cysteine starvation of MDA-MB-231 cells after AMD1 inhibitor pre-treatment; format: cell-based; conditions: 20 uM for 16 h before medium lacking cysteine
Description: FIG. 40. […] MDA-MB-231 cells were initially seeded in complete (DMEM) medium in 24-well plates. After 24 h, cells were treated with AMD1 inhibitor Sardomozide (20 uM) for 16 h or left untreated (Ctr). Cells were then washed with PBS and given medium lacking cysteine but containing all 19 other amino acids. Images (panel a) were captured using a light microscope, and cell counts (panel b) were performed using a CASY TT cell counter. Data are average of three wells. Error bars=STDEV.
(§2) Cells (4×10^4-1×10^5) were seeded in complete RPMI or DMEM medium in 24-well plates and allowed to adhere overnight. Cells were then washed with PBS and received assay medium supplemented with the stated amino acids/metabolites/drugs. Assay medium was formulated based on RPMI-1640 medium but lacking amino acids, which were added individually depending on the assay. Assay medium was also supplemented with additional vitamin B6 (20 uM), a co-factor for cysteine synthesis. Cells were counted (using Casy TT cell counter, Innovatis, Roche Applied Science) at the stated time-points, using a “time=0” plate to calculate relative cell number from time of medium change.

[4] = system: Colorectal and breast cancer cell lines; test: Rescue from cysteine starvation by homocysteine supplementation; format: cell-based; conditions: homocysteine 0.2 mM & 0.8 mM, three days
Description: FIG. 39. […] Colorectal and breast cancer cell lines were grown in 24-well plates. Basal medium was formulated (based on RPMI medium) lacking cysteine but containing all 19 other essential and non-essential amino acids. This basal medium was supplemented with the stated components; cysteine 0.4 mM (+Cys), homocysteine 0.2 mM & 0.8 mM (HC) and grown for three days. Data are average of three wells. Error bars=STDEV.
as §2

Compound: COc1cccc2c1C(=O)c1c(O)c3c(c(O)c1C2=O)C[C@@](O)(C(C)=O)C[C@@H]3O[C@H]1C[C@H](N)[C@H](O)[C@H](C)O1 [Daunorubicin]
- reactive oxygen species levels in tumour-organoids ([1]; with serine & glycine starvation, two days): increase reactive oxygen species levels
- tumour organoid growth ([2]; with serine & glycine starvation): complements serine and glycine starvation; also recorded: decrease tumour organoid growth

Compound: CN(C)C(=N)N=C(N)N [Metformin]
- reactive oxygen species (ROS) levels ([1]; high dose metformin): increase with high dose metformin
- reactive oxygen species (ROS) levels ([1]; low dose metformin): decrease with low dose metformin
- organoid growth, interaction with serine and glycine starvation ([2]; low dose metformin): antagonizes serine and glycine starvation; also recorded: did not have a synergistic effect
- organoid growth, interaction with serine starvation ([2]; metformin 1000 uM): synergise with serine starvation
- cell number (DLD1 and SW480 cells; metformin at 20 µM): trend for increased cell number
- synergistic effect with serine/glycine starvation (DLD1 and SW480 cells; metformin at concentrations found in vivo): did not have a synergistic effect
- metformin levels in serum and tissue ([3]; 200 mg/kg/day in drinking water, LCMS): relatively low; also recorded: too low to potentiate the anti-cancer effect
- average tumour area ([3]; metformin 200 mg/kg/day): without a substantial change in average tumour area
- impact on systemic metabolism (serum glucose and lactate) ([3]; metformin 200 mg/kg/day): minimal impact on systemic metabolism; also recorded: little impact on systemic metabolism
- SYNERGY SCORE (HCT116, DLD1 and SW480): 7.53

Compound: N=C(N)N/N=C1\CCc2c(C(=N)N)cccc21 [Sardomozide]
- protection from cell death in cysteine starvation (MDA-MB-231 cells): protects cells from acute sensitivity (i.e. cell death) to cysteine starvation

Compound: N[C@@H](CCS)C(=O)O [homocysteine]
- rescue from cysteine starvation [4]: rescued from cysteine starvation; also recorded: significant rescue from cysteine starvation
